Results as given in article PMC4521081, “Thiophenecarboxamide Derivatives Activated by EthA Kill Mycobacterium tuberculosis by Inhibiting the CTP Synthetase PyrG” (Chemistry & Biology, 2015).
In brackets after ≈: the same amount, converted by molar mass. Entries after “also recorded” stand apart in the source; their conditions may differ. Like-named read-outs stand apart in the source and are kept apart here.

Experiments:
wild-type PyrG = wild-type PyrG (Mycobacterium tuberculosis, UniProt P9WHK7); assay type: biochemical, M. tuberculosis; parameters: % inhibition of wild-type PyrG: dose or concentration left out as unconfirmed
Chain of wild-type PyrG (P9WHK7 whole entry): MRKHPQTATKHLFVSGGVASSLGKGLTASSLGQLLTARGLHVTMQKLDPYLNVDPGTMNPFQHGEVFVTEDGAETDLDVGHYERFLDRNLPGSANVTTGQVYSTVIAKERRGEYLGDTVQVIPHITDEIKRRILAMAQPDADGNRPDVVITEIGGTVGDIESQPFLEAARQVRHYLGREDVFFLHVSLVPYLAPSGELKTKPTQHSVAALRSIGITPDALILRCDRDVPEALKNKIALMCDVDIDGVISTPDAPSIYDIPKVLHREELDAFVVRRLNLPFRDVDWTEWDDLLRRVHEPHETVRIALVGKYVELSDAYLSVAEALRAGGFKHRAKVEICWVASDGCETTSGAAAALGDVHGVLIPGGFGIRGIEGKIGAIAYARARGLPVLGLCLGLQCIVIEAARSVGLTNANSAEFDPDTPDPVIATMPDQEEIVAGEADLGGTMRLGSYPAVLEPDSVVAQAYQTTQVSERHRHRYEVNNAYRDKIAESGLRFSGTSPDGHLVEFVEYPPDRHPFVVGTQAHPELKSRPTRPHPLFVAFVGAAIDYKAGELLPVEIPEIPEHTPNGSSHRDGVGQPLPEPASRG

M. tuberculosis H37Rv [1] = experiment: microbe, parasite or virus in culture; assay type: cell-based
M. tuberculosis H37Ra = experiment: MIC against M. tuberculosis H37Ra; assay type: cell-based, Mycobacterium tuberculosis
EthA [2] = molecular target: T1, EthA (Mycobacterium tuberculosis, UniProt P9WNF9); conditions: cited from earlier work; for Km: read-out: Km (EthA substrate)
T1 sequence (P9WNF9 whole entry): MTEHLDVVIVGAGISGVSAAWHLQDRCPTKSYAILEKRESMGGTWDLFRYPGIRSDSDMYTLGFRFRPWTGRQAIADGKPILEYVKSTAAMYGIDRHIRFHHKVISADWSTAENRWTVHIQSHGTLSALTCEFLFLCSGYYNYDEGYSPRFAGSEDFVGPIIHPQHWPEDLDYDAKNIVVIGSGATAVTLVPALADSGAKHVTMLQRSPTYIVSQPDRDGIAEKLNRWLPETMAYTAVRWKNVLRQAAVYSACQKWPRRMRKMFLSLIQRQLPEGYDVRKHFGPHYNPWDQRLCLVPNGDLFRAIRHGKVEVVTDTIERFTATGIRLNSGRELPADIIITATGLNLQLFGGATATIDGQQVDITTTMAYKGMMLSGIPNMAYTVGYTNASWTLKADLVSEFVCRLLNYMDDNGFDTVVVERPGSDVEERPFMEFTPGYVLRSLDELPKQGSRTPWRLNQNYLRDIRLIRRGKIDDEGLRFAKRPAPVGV

RAW 264.7 = conditions: at concentrations below 40 μg/ml
PyrG = PyrG (Mycobacterium tuberculosis, UniProt P9WHK7); assay type: biochemical, M. tuberculosis
Chain of PyrG (P9WHK7 whole entry): as the sequence (P9WHK7 whole entry) above

A549 = conditions: A549, at concentrations below 40 μg/ml
[3] = system: non-replicating M. tuberculosis ss18b; experiment: microbe, parasite or virus in culture; assay type: cell-based; conditions: Mycobacterium tuberculosis
EthA [4] = molecular target: T1, EthA; assay type: biochemical, M. tuberculosis
HepG2 = conditions: HepG2, at concentrations below 40 μg/ml
Huh7 = conditions: Huh7, at concentrations below 40 μg/ml
[5] = system: intracellular M. tuberculosis H37Rv; experiment: microbe, parasite or virus in culture; assay type: cell-based; conditions: Mycobacterium tuberculosis; for IC50: read-out: Intracellular IC50; for IC90: read-out: Intracellular IC90
M. tuberculosis H37Rv [6] = assay type: cell-based, Mycobacterium tuberculosis
[7] = Mycobacterium tuberculosis, H37RV, Figure 5, H37Rv, read-out: MIC
[8] = Mycobacterium tuberculosis, H37RV, Table S4, H37Rv, read-out: MIC
[9] = Mycobacterium tuberculosis, H37RV, Table S2, H37Rv, read-out: MIC
[10] = Mycobacterium tuberculosis, H37RV, Table 1, replicating, read-out: H37Rv MIC
[11] = Mycobacterium tuberculosis, H37RV, Table 2, strain H37Rv, read-out: MIC

SMILES: Cc1ccc(C(=O)Nc2ccc([N+](=O)[O-])cc2)[s+]1[O-] (centres unmarked) [M2]
- effect on PyrG enzymatic activity (wild-type PyrG): inhibit

SMILES: Cc1ccc(C(=O)O)s1 [compound 11326028, 5-methylthiophene-2-carboxylic acid]
- MIC (M. tuberculosis H37Rv [1]; Figure 5, H37Rv): 0.128 µg/mL (≈ 0.9 µM)
- MIC (M. tuberculosis H37Rv [1]; [7]): 0.125 µg/mL (≈ 0.879 µM)
- MIC (M. tuberculosis H37Rv [1]; [8]): 0.128 µg/mL (≈ 0.9 µM)

SMILES: CC1=CC=C(C(=O)Nc2ccc([N+](=O)[O-])cc2)S1(=O)=O [compound 11426026]
- MIC (M. tuberculosis H37Ra): 4 µg/mL (≈ 13.6 µM)
- MIC (M. tuberculosis H37Rv [1]; [9]): 1 µg/mL (≈ 3.4 µM)
- MIC (M. tuberculosis H37Rv [1]; Mycobacterium tuberculosis, H37RV, Table S5, read-out: H37Rv MIC): 1 µg/mL (≈ 3.4 µM)
- % inhibition of wild-type PyrG (wild-type PyrG): 83.6 ± 3.8%
- effect on PyrG enzymatic activity (wild-type PyrG): inhibit; also recorded: higher degree of inhibition

SMILES: O=C(CCc1ccccc1)NC(=O)Nc1ccc(N2CCCCC2)cc1 [3-phenyl-N-[(4-piperidin-1-ylphenyl)carbamoyl]propanamide]
- effect on PyrG enzymatic activity (wild-type PyrG): no effect

SMILES: CC(=O)Cc1ccccc1 [phenylacetone]
- Km (EthA [2]; comparison values, ref Fraaije et al., 2004): 60 µM
- kcat (EthA substrate) (EthA [2]; ref Fraaije et al., 2004): 0.027 s⁻¹

SMILES: Cc1ccc(C(=O)Nc2ccc([N+](=O)[O-])cc2)s1 [compound 7947882, 5-methyl-N-(4-nitrophenyl)thiophene-2-carboxamide]
- cytotoxicity (RAW 264.7): not cytotoxic
- time in which PyrG lost full activity (PyrG): ≤ 4 h
- cytotoxicity (A549): not cytotoxic
- IC50 [3]: 2.5 µg/mL (≈ 9.53 µM)
- IC90 [3]: 10 µg/mL (≈ 38.1 µM)
- higher affinity for EthA than ETH (EthA [4]): ~10 fold
- MIC (M. tuberculosis H37Rv [1]; [7]): 0.5 µg/mL (≈ 1.91 µM)
- MIC (M. tuberculosis H37Rv [1]; [10]): 0.5 µg/mL (≈ 1.91 µM)
- MIC (M. tuberculosis H37Rv [1]; [11]): 0.5 µg/mL (≈ 1.91 µM)
- MIC (M. tuberculosis H37Rv [1]; [9]): 0.5 µg/mL (≈ 1.91 µM)
- MIC (M. tuberculosis H37Rv [1]; [8]): 0.5 µg/mL (≈ 1.91 µM)
- cytotoxicity (HepG2): not cytotoxic
- cytotoxicity (Huh7): not cytotoxic
- IC50 [5]: 0.625 µg/mL (≈ 2.38 µM)
- IC90 [5]: 1.25 µg/mL (≈ 4.77 µM)
- effect on wild-type PyrG (wild-type PyrG): ineffective
- melting point: 178 to 180 °C
- abundance of nucleotide intermediates (M. tuberculosis H37Rv [6]): substantial increase

SMILES: COc1ccc(NC(=O)c2cc([N+](=O)[O-])c(C)s2)cc1OC [compound 11326054]
- kcat (compound as EthA substrate) (EthA [4]): 0.0163 ± 0.0005 s⁻¹
- MIC (M. tuberculosis H37Rv [1]; [7]): 0.25 µg/mL (≈ 0.776 µM)
- MIC (M. tuberculosis H37Rv [1]; [8]): 0.25 µg/mL (≈ 0.776 µM)
- melting point: 200 to 202 °C

SMILES: O=C(CCc1ccccc1)NC(=S)Nc1ccc(N2CCCCC2)cc1 [compound 7904688, 3-phenyl-N-[(4-piperidin-1-ylphenyl)carbamothioyl]propanamide]
- cytotoxicity (RAW 264.7): not cytotoxic
- loss of PyrG activity (PyrG): about 80%
- cytotoxicity (A549): not cytotoxic
- IC50 [3]: 2.5 µg/mL (≈ 6.8 µM)
- IC90 [3]: 20 µg/mL (≈ 54.4 µM)
- higher affinity for EthA than ETH (EthA [4]): ~10 fold
- MIC (M. tuberculosis H37Rv [1]; [7]): 0.5 µg/mL (≈ 1.36 µM)
- MIC (M. tuberculosis H37Rv [1]; [10]): 0.5 µg/mL (≈ 1.36 µM)
- MIC (M. tuberculosis H37Rv [1]; [11]): 0.5 µg/mL (≈ 1.36 µM)
- cytotoxicity (HepG2): not cytotoxic
- cytotoxicity (Huh7): not cytotoxic
- IC50 [5]: 0.175 µg/mL (≈ 0.476 µM)
- IC90 [5]: 0.625 µg/mL (≈ 1.7 µM)
- effect on wild-type PyrG (wild-type PyrG): ineffective

SMILES: CCc1cc(C(N)=S)ccn1 [ETH, ethionamide, reference compound]
- Km (EthA [2]): 340 µM
- MIC (M. tuberculosis H37Rv [1]; Mycobacterium tuberculosis, H37RV): 1 µg/mL (≈ 6.02 µM)
